Measured values as given in patent US20210085640A1, “ACYLATED CATECHIN POLYPHENOLS AND METHODS OF THEIR USE FOR THE TREATMENT OF CANCER” (Flagship Pioneering Innovations V, Inc., priority 2018, published 2021).

Experiments:
[1] = Human Regulatory T Cell Differentiation Assay; type: cell-based; conditions: human, primary naïve CD4+ T cells isolated from PBMCs, read-out: Cell viability % DMSO
Protocol: Peripheral blood mononuclear cells (PBMCs) from whole blood donated by health volunteers were separated by Ficoll-Paque gradient centrifugation and naïve CD4^+ T cells were subsequently isolated using magnet beads (EasySep™ Human Naïve CD4^+ T Cell Isolation Kit, Cambridge, Mass.). For regulatory T cell (Treg) differentiation assay, naïve CD4^+ T cells were cultured (1-10×10^4 cells) in CTS OpTmizer medium for 6 days and stimulated with 5 ng/ml TGF-β, 100 U/ml IL-2, and ImmunoCult™ Human […] T Cell Activator; Stemcell #10990) with/without Compounds. Cell viability was determined using a viability dye (eBioscience Fixable Viability Dye eFluor 780: ThermoFisher 65-0865-14) at 1:500 dilution. The cells were gated for Treg, defined as Live, CD11c^−, CD14^−, CD19^−, CD8^−, CD4^+, CD3^+, CD25^+, FOXP3^+. Percent (%) Tregs were calculated as percentage of CD4^+, CD25^+, FOXP3^+ cells over total CD4^+ T cells. Statistical analysis was performed with GraphPad Prism Software Using One-Way ANOVA.

[2] = Stability in Simulated Gastric Fluid (SGF); type: in vitro ADME; conditions: SGF pH 1.6 with pepsin, 1 μM, 37° C.
Protocol: Stability of acylated active agents in Simulated Gastric Fluid (SGF). This assay was used to assess the stability of an acylated active agent in a stomach.
Medium was prepared by dissolving 2 g of sodium chloride in 0.6 L in ultrapure water (MilliQ®, Millipore Sigma, Darmstadt, Germany). The pH was adjusted to 1.6 with 1N hydrochloric acid, and the volume was then adjusted to 1 L with purified water.
60 mg FaSSIF powder (Biorelevant™, London, UK) were dissolved in 500 mL buffer (above). Pepsin was added (0.1 mg/mL) (Millipore Sigma, Darmstadt, Germany), and the solution was stirred. The resulting SGF media were used fresh for each experiment.
(§1) Test compounds were dissolved in DMSO stock to 1 mM. An aliquot of the DMSO stock solution was removed and diluted in the SGF Media in 15 mL falcon tubes to generate a total compound concentration of 1 μM. A 1 mL aliquot was immediately removed and diluted once with 1 volume of acetonitrile for T0 timepoint. The mixture was sealed and mixed at 37° C. in an incubator. Aliquots (1 mL) were removed at regular intervals and immediately quenched by the addition of 1 volume of acetonitrile. The resulting samples were analyzed by LC/MS to determine degradation rates

[3] = Stability in Simulated Intestinal Fluid (SIF); type: in vitro ADME; conditions: for Assay 2 (SIF) (% @ Remaining 4 hours): SIF pH 6.7 with pancreatin, 1 μM, 37° C.; for selective delivery to the upper intestine: conclusion drawn from Table 1 (SGF and SIF stability)
Protocol: SIF Stability of acylated active agents in Simulated Intestinal Fluid (SIF). This assay was used to assess the stability of an acylated active agent in a small intestine.
Phosphate buffer was prepared by dissolving 0.42 g of sodium hydroxide pellets and 3.95 g of monobasic sodium phosphate monohydrate and 6.19 g of sodium chloride in ultrapure water (MilliQ®, Millipore Sigma, Darmstadt, Germany). The pH was adjusted to 6.7 using aq. HCl and aq. NaOH, as necessary, and the solution was diluted with ultrapure water to produce 1 L of the pH 6.7 buffer.
112 mg FaSSIF powder (Biorelevant™, London, UK) was dissolved in 50 mL of the pH 6.7 buffer. 2 to 3 mL of the resulting solution were then added to 500 mg pancreatin (Millipore Sigma, Darmstadt, Germany). The resulting mixture was agitated by finger tapping the vessel containing the mixture until milky suspension formed. At this time, the remainder of the 50 mL FaSSiF/pH 6.7 buffer solution was added. The resulting suspension was flipped upside down 10 times to produce SIF, which was used fresh.
as §1, with “SIF media” for “SGF Media”, “produce” for “generate”, “mixture with a tested” for “total”, “agitated” for “mixed”, “rates.” for “rates”

## C[C@@H](O)CCO [(R)-1,3-Butanediol]
[1]
  viability at 6 days, 100 µM: 90 to 110%
[1]; 0.5 mM
  viability at 6 days, 0.5 mM: 90 to 110%

## CC(=O)O [Acetic acid]
[1]; 1 mM
  viability at 6 days, 1 mM: 90 to 110%
[1]
  viability at 6 days, 3 mM: 90 to 110%

## CCCC(=O)O [Butyric Acid]
[1]
  viability at 6 days, 3 mM: < 90%

## CCCC(=O)Oc1cc(OC(=O)CCC)c2c(=O)c(OC(=O)CCC)c(-c3ccc(OC(=O)CCC)c(OC(=O)CCC)c3)oc2c1 [Compound 5, [2-butanoyloxy-4-[3,5,7-tri(butanoyloxy)-4-oxo-chromen-2-yl]phenyl] butanoate]
[2]
  Assay 1 (SGF) (% Remaining @ 1 hours): C (>75% of the tested compound remaining)
[3]
  Assay 2 (SIF) (% @ Remaining 4 hours): B (25-75% of the tested compound remaining)
  selective delivery to the upper intestine: can be selectively delivered to the upper intestine

## CC(=O)Oc1ccc(C2CC(=O)c3c(OC(C)=O)cc(OC(C)=O)cc3O2)cc1 (stereo not shown) [Compound 9, [4-(5,7-diacetoxy-4-oxo-chroman-2-yl)phenyl] acetate]
[2]
  Assay 1 (SGF) (% Remaining @ 1 hours): C (>75% of the tested compound remaining)
[3]
  Assay 2 (SIF) (% @ Remaining 4 hours): A (<25% of the tested compound remaining)
  selective delivery to the upper intestine: can be selectively delivered to the upper intestine

## CCCC(=O)Oc1ccc(C2CC(=O)c3c(OC(=O)CCC)cc(OC(=O)CCC)cc3O2)cc1 (stereo not shown) [Compound 10, [4-[5,7-di(butanoyloxy)-4-oxo-chroman-2-yl]phenyl] butanoate]
[2]
  Assay 1 (SGF) (% Remaining @ 1 hours): B (25-75% of the tested compound remaining)
[3]
  Assay 2 (SIF) (% @ Remaining 4 hours): A (<25% of the tested compound remaining)

## CCC(=O)Oc1cc(O)c2c(=O)cc(-c3ccc(OC(=O)CC)c(OC(=O)CC)c3)oc2c1 [Compound 12, 4-(5-hydroxy-4-oxo-7-(propionyloxy)-4H-chromen-2-yl)-1,2-phenylene dipropionate]
[2]
  Assay 1 (SGF) (% Remaining @ 1 hours): C (>75% of the tested compound remaining)
[3]
  Assay 2 (SIF) (% @ Remaining 4 hours): A (<25% of the tested compound remaining)
  selective delivery to the upper intestine: can be selectively delivered to the upper intestine

## CCC(=O)Oc1cc(OC(=O)CC)c2c(=O)c(OC(=O)CC)c(-c3cc(OC(=O)CC)c(OC(=O)CC)c(OC(=O)CC)c3)oc2c1 [Compound 13, [4-oxo-3,5-di(propanoyloxy)-2-[3,4,5-tri(propanoyloxy)phenyl]chromen-7-yl] propanoate]
[2]
  Assay 1 (SGF) (% Remaining @ 1 hours): C (>75% of the tested compound remaining)
[3]
  Assay 2 (SIF) (% @ Remaining 4 hours): A (<25% of the tested compound remaining)
  selective delivery to the upper intestine: can be selectively delivered to the upper intestine

## CCC(=O)Oc1ccc2c(c1)oc(=O)c1cc(OC(=O)CC)c(OC(=O)CC)cc12 [Compound 18, [6-oxo-8,9-di(propanoyloxy)benzo[c]chromen-3-yl] propanoate]
[2]
  Assay 1 (SGF) (% Remaining @ 1 hours): C (>75% of the tested compound remaining)
[3]
  Assay 2 (SIF) (% @ Remaining 4 hours): A (<25% of the tested compound remaining)
  selective delivery to the upper intestine: can be selectively delivered to the upper intestine

## CCCC(=O)OCC[C@@H](C)OC(=O)Oc1ccc(/C=C/c2cc(OC(=O)O[C@H](C)CCOC(=O)CCC)cc(OC(=O)O[C@H](C)CCOC(=O)CCC)c2)cc1 [Compound 25, [(3R)-3-[4-[(E)-2-[3,5-bis[[(1R)-3-butanoyloxy-1-methyl-propoxy]carbonyloxy]phenyl]vinyl]phenoxy]carbonyloxybutyl] butanoate]
[2]
  Assay 1 (SGF) (% Remaining @ 1 hours): C (>75% of the tested compound remaining)
[3]
  Assay 2 (SIF) (% @ Remaining 4 hours): A (<25% of the tested compound remaining)
  selective delivery to the upper intestine: can be selectively delivered to the upper intestine

## CCCC(=O)O[C@H](C)CCOC(=O)Oc1ccc(/C=C/c2cc(OC(=O)OCC[C@@H](C)OC(=O)CCC)cc(OC(=O)OCC[C@@H](C)OC(=O)CCC)c2)cc1 [Compound 26, [(1R)-3-[4-[(E)-2-[3,5-bis[[(3R)-3-butanoyloxybutoxy]carbonyloxy]phenyl]vinyl]phenoxy]carbonyloxy-1-methyl-propyl] butanoate]
[2]
  Assay 1 (SGF) (% Remaining @ 1 hours): C (>75% of the tested compound remaining)
[3]
  Assay 2 (SIF) (% @ Remaining 4 hours): B (25-75% of the tested compound remaining)

## CCC(=O)OCC[C@@H](C)OC(=O)Oc1ccc(/C=C/c2cc(OC(=O)O[C@H](C)CCOC(=O)CC)cc(OC(=O)O[C@H](C)CCOC(=O)CC)c2)cc1 [Compound 27, [(3R)-3-[4-[(E)-2-[3,5-bis[[(1R)-1-methyl-3-propanoyloxy-propoxy]carbonyloxy]phenyl]vinyl]phenoxy]carbonyloxybutyl] propanoate]
[2]
  Assay 1 (SGF) (% Remaining @ 1 hours): C (>75% of the tested compound remaining)
[3]
  Assay 2 (SIF) (% @ Remaining 4 hours): A (<25% of the tested compound remaining)
  selective delivery to the upper intestine: can be selectively delivered to the upper intestine

## CCC(=O)O[C@H](C)CCOC(=O)Oc1ccc(/C=C/c2cc(OC(=O)OCC[C@@H](C)OC(=O)CC)cc(OC(=O)OCC[C@@H](C)OC(=O)CC)c2)cc1 [Compound 28, (2R,2′R)-((((5-(E)-4-((((R)-3-(propionyloxy)butoxy)carbonyl)oxy)styryl)-1,3-phenylene)bis(oxy))bis(carbonyl))bis(oxy))bis(butane-4,2-diyl) dipropionate]
[2]
  Assay 1 (SGF) (% Remaining @ 1 hours): B (25-75% of the tested compound remaining)
[3]
  Assay 2 (SIF) (% @ Remaining 4 hours): A (<25% of the tested compound remaining)

## CC(=O)OCC[C@@H](C)OC(=O)Oc1ccc(/C=C/c2cc(OC(=O)O[C@H](C)CCOC(C)=O)cc(OC(=O)O[C@H](C)CCOC(C)=O)c2)cc1 [Compound 33, [(3R)-3-[4-[(E)-2-[3,5-bis[[(1R)-3-acetoxy-1-methyl-propoxy]carbonyloxy]phenyl]vinyl]phenoxy]carbonyloxybutyl] acetate]
[2]
  Assay 1 (SGF) (% Remaining @ 1 hours): C (>75% of the tested compound remaining)
[3]
  Assay 2 (SIF) (% @ Remaining 4 hours): A (<25% of the tested compound remaining)
  selective delivery to the upper intestine: can be selectively delivered to the upper intestine

## CC(=O)O[C@H](C)CCOC(=O)Oc1ccc(/C=C/c2cc(OC(=O)OCC[C@@H](C)OC(C)=O)cc(OC(=O)OCC[C@@H](C)OC(C)=O)c2)cc1 [Compound 34, [(1R)-3-[4-[(E)-2-[3,5-bis[[(3R)-3-acetoxybutoxy]carbonyloxy]phenyl]vinyl]phenoxy]carbonyloxy-1-methyl-propyl] acetate]
[2]
  Assay 1 (SGF) (% Remaining @ 1 hours): C (>75% of the tested compound remaining)
[3]
  Assay 2 (SIF) (% @ Remaining 4 hours): A (<25% of the tested compound remaining)
  selective delivery to the upper intestine: can be selectively delivered to the upper intestine

## CC[C@H]1[C@@H](O)[C@@H]2[C@H](CC[C@]3(C)[C@@H]([C@H](C)CCC(=O)O)CC[C@@H]23)[C@@]2(C)CC[C@@H](O)C[C@@H]12 [Obeticholic acid]
[1]
  viability at 6 days, 100 µM: 90 to 110%

## O=c1c(O)c(-c2ccc(O)c(O)c2)oc2cc(O)cc(O)c12 [Quercetin]
[1]; 100 nM
  viability at 6 days, 0.1 µM: 90 to 110%
[1]; 1 uM
  viability at 6 days, 1 µM: 90 to 110%

## CN(CCOc1ccc(CC2SC(=O)NC2=O)cc1)c1ccccn1 (stereo not shown) [Rosiglitazone]
[1]; 10 uM
  viability at 6 days, 10 µM: 90 to 110%
[1]
  viability at 6 days, 100 µM: < 90%
